Experiments:
HEK293T cells = experiment: in vitro; assay type: cell-based; conditions: human, 72 h
Protocol: (§1) The 3-(4,5-dimethylthiazol-2-yl)-2,5-diphenyltetrazolium bromide (MTT) method was performed to assess the cytotoxicity of target compounds in MDCK cells and HEK293T cells. Firstly, MDCK cells or HEK293T cells were seeded into the 96-well plate. Then, the media containing test compounds replaced the growth media after 48 h. Incubate MDCK cells or HEK293T cells with test compounds for 72 h at 37 °C in a humidified 5% CO2 incubator. Later, MTT solution (5 mg/mL in PBS) was added into each well and plates were incubated for 4 h at 37 °C. Then, add a solubilization solution to lyse cells. Finally, absorbance was read at 620 nm using an ELISA plate reader (Tecan Sunrise) after 3 h of further incubation at 37 °C. We set the values obtained from the wells treated with only DMSO as 100% of viable cells.

in vitro [1] = assay type: cell-based; conditions: human
Protocol: as §1

[2] = tested on: influenza virus A/WSN/33 (H1N1); experiment: Plaque inhibition assay in MDCK cells; assay type: cell-based; conditions: MDCK, read-out: Plaque Inhibition Assay (A/WSN/33, H1N1) Inhibition Rate; for inhibition at 100 µM: concentration 100 µM
MDCK cells = experiment: in vitro; assay type: cell-based, canine; conditions: dog, 72 h
Protocol: as §1

in vitro [3] = assay type: cell-based, canine; conditions: dog
Protocol: as §1

[4] = tested on: influenza virus A/WSN/33 (H1N1); experiment: microbe, parasite or virus in culture; assay type: cell-based; conditions: MDCK, 72 h; for inhibition at 12.5 µM / inhibition at 25 µM / inhibition at 50 µM / inhibition at 100 µM: H1N1|WSN, read-out: Antiviral activity in CPE assay; for EC50: read-out: Cytopathic Effect Assay (A/WSN/33, H1N1) EC50

| SMILES | HEK293T cells survival rate (HEK293T cells; 3.125 µmol·L−1) [%] | HEK293T cells survival rate (HEK293T cells; 6.25 µmol·L−1) [%] | HEK293T cells survival rate (HEK293T cells; 12.5 µmol·L−1) [%] | HEK293T cells survival rate (HEK293T cells; 25 µmol·L−1) [%] | HEK293T cells survival rate (HEK293T cells; 50 µmol·L−1) [%] | HEK293T cells survival rate (HEK293T cells; 100 µmol·L−1) [%] | CC50 at 72 h (in vitro [1]) [µM] | inhibition at 100 µM [2] [%] | MDCK cells survival rate (MDCK cells; 12.5 µmol·L−1) [%] | MDCK cells survival rate (MDCK cells; 25 µmol·L−1) [%] | MDCK cells survival rate (MDCK cells; 50 µmol·L−1) [%] | MDCK cells survival rate (MDCK cells; 100 µmol·L−1) [%] | CC50 at 72 h (in vitro [3]) [µM] | melting point [°C] | inhibition at 12.5 µM [4] [%] | inhibition at 25 µM [4] [%] | inhibition at 50 µM [4] [%] | inhibition at 100 µM [4] [%] | EC50 [4] [µM] | also measured |
| --- | --- | --- | --- | --- | --- | --- | --- | --- | --- | --- | --- | --- | --- | --- | --- | --- | --- | --- | --- | --- |
| COc1ccccc1OCCNC(=O)c1ccc(Nc2ccnc3ccc(Br)cc23)cc1 [Compound G24, N-[2-(2-Methoxyphenoxy)ethyl]-4-[(6-bromoquinolin-4-yl)amino]benzamide] | 113.31±4.70 | 96.70±5.40 | 91.88±3.61 | 91.06±10.23 | 69.53±3.05 | 72.95±4.52 | > 100 | < 10 | 97.97±11.82 | 71.98±13.89 | 87.44±3.70 | 105.38±8.08 | > 100 | 240.5 to 241.3 | 21 ± 2.86 | 19.2 ± 0.69 | 19.2 ± 0.42 | 18.4 ± 1.27 | > 100 |  |
| Cc1ccccc1N1CCN(C(=O)c2ccc(Nc3ccnc4cc(C(F)(F)F)ccc34)cc2)CC1 [Compound G13, [4-(O-tolyl)piperazin-1-yl]{4-{[7-(trifluoromethyl)quinolin-4-yl]amino}phenyl}methanone] | 99.14±6.42 | 96.29±4.65 | 89.92±2.14 | 88.23±4.29 | 80.60±2.01 | 81.89±2.67 | > 100 | < 10 | 89.39±3.87 | 87.73±16.36 | 92.20±10.16 | 65.91±7.51 | > 100 | 194.7 to 195.6 | 27 ± 2.2 | 33.1 ± 4.47 | 36.9 ± 4.41 | 34.3 ± 7.15 | > 100 |  |
| CCOc1ccc(N2CCN(C(=O)c3ccc(Nc4ccnc5cc(C(F)(F)F)ccc45)cc3)CC2)cc1 [Compound G18, [4-(4-Ethoxyphenyl)piperazin-1-yl]{4-{[7-(trifluoromethyl)quinolin-4-yl]amino}phenyl}methanone] | 98.42±9.98 | 87.82±9.55 | 70.43±2.98 | 65.43±6.72 | 72.68±1.96 | 86.90±1.67 | > 100 |  | 112.99±2.36 | 111.55±2.20 | 138.28±6.89 | 104.99±4.01 | > 100 | 210 to 212.3 | 42.8 ± 0.57 | 39.5 ± 1.72 | 38.7 ± 4.29 | 35.5 ± 9.67 | > 100 | inhibition at 25 µM ([2]; concentration 25 µM): 16.3% |
| O=C(c1ccc(Nc2ccnc3cc(C(F)(F)F)ccc23)cc1)N1CCN(c2ccc(OC(F)(F)F)cc2)CC1 [Compound G15, {4-[4-(Trifluoromethoxy)phenyl]piperazin-1-yl}{4-{[7-(trifluoromethyl)quinolin-4-yl]amino}phenyl}methanone] | 105.64±1.62 | 104.46±0.45 | 93.38±3.30 | 103.00±3.15 | 89.01±2.08 | 81.59±1.91 | > 100 |  | 92.13±3.70 | 82.80±5.22 | 93.36±4.01 | 76.18±1.27 | > 100 | 195.9 to 196.4 | 36.9 ± 0.82 | 39.8 ± 4.98 | 35.3 ± 1.81 | 45.6 ± 5.12 | > 100 | inhibition at 50 µM ([2]; concentration 50 µM): 61% |

From paper PMC9181126, “Design, Synthesis, Molecular Docking Analysis and Biological Evaluations of 4-[(Quinolin-4-yl)amino]benzamide Derivatives as Novel Anti-Influenza Virus Agents” (International Journal of Molecular Sciences, 2022)
